Assay results as given in PMC5413004, “Small molecule inhibitors of mesotrypsin from a structure-based docking screen” (PLoS ONE, 2017).

Key:
mesotrypsin [1] = biological target: T1, mesotrypsin (Homo sapiens, UniProt P35030); assay: Competitive inhibition assay with N-Cbz-Gly-Pro-Arg-pNA, mesotrypsin; assay type: biochemical; details: for Ki: 0.25 nM enzyme, 37°C, pH 8.0, global fit to competitive inhibition, duplicate independent experiments
T1 construct: made in house; host or cells: E. coli
T1 sequence (P35030 81-304 limits assumed): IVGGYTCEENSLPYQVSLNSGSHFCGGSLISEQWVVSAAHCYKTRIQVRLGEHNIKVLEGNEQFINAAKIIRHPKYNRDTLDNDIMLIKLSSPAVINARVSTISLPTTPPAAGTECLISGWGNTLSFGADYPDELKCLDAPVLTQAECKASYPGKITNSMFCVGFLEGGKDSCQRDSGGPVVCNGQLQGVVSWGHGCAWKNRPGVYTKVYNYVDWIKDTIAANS
Text: (§1) Recombinant human anionic trypsinogen, human cationic trypsinogen and human mesotrypsinogen were expressed in E. coli, extracted from inclusion bodies, refolded, purified and activated with bovine enteropeptidase as described in previous work.
(§2) Active mesotrypsin was quantified by active site titration as described in [21] using 4-nitrophenyl-4-guanidinobenzoate (NPGB) from Sigma. Concentrations of colorimetric peptide reporter substrate N-Cbz-Gly-Pro-Arg-pNA (Sigma) for the activity and competitive inhibition assay were determined by end point assay. Working stocks for compounds were diluted in dimethylsulfoxide (DMSO) and stored at -20°C. Compounds were assessed for mesotrypsin inhibitory activity in reactions carried out in cuvettes at 37°C in a Varian Cary-100 spectrophotometer. Reactions consisted of 0.25 nM enzyme, 100 μM reporter substrate, 100 mM Tris-HCl pH 8.0, 1 mM CaCl2, and a compound concentration range between 50 nM to 500 μM in the assay. Reactions were followed for approximately three minutes, with the initial rates determined by the linear increase in absorbance resulting from para-nitroaniline production (ε410 = 8480 M^-1 cm^-1). Absorbance versus compound concentration was plotted on a Linear-Log scale to determine IC50.
(§3) The competitive inhibition assay reactions consisted of 0.25 nM enzyme, five reporter substrate concentrations between 10 μM-200 μM, and five inhibitory compound concentrations between 1–30 μM. Reactions were followed for approximately 3 minutes, and the initial rate data were globally fitted using Prism (GraphPad Software, San Diego CA) by non-linear regression based on Eq 1. Results are from duplicate independent experiments.
(§4) V= Kcat[E]o[S]/Km (1+[I]/Ki)+[S] (1)

[2] = biological target: T2, trypsin 1 (cationic trypsin) (Homo sapiens, UniProt P07477); assay: Competitive inhibition assay, cationic trypsin; assay type: biochemical; details: human trypsin 1
T2 construct: made in house; host or cells: E. coli
Method: (§5) To assess compound selectivity we determined Ki for the three compounds towards related human trypsin isoforms trypsin 1 (cationic trypsin) and trypsin 2 (anionic trypsin).
as §1, §3, §4

[3] = biological target: T3, trypsin 2 (anionic trypsin) (Homo sapiens, UniProt P07478); assay: Competitive inhibition assay, anionic trypsin; assay type: biochemical; details: human trypsin 2
T3 construct: made in house; host or cells: E. coli
T3 sequence (P07478 24-247): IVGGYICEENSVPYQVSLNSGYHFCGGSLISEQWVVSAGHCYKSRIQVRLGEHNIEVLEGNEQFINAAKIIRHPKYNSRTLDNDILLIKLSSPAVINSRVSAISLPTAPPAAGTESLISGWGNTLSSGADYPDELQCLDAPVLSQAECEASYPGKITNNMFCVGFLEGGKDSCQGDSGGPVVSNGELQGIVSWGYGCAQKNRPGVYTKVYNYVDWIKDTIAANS
Method: as §5, §1, §3, §4

mesotrypsin [4] = biological target: T1, mesotrypsin; assay: Mesotrypsin activity assay (colorimetric, N-Cbz-Gly-Pro-Arg-pNA); assay type: biochemical; details: 0.25 nM enzyme, 100 μM substrate, compound 50 nM to 500 μM, 37°C
Method: Compounds were tested by an in vitro activity assay utilizing the colorimetric peptide reporter substrate N-Cbz-Gly-Pro-Arg-pNA. The assay monitors the rate of para-nitroaniline production after substrate cleavage by mesotrypsin.
as §1
as §2, with “Reactions consisted of 0.25 nM enzyme, 100 μM reporter substrate, 100 mM Tris-HCl pH 8.0, 1 mM CaCl2, and a compound concentration range between 50 nM to 500 μM in the assay.” left out

trypsin IV (mesotrypsin) = details: versus trypsin IV (mesotrypsin); cited from earlier work

| SMILES | Ki (mesotrypsin [1]) | Ki [2] | Ki [3] | inhibitory activity towards mesotrypsin (mesotrypsin [4]) | inhibition mode (mesotrypsin [1]; multiple substrate and compound concentrations, Lineweaver-Burk) | Ki (trypsin IV (mesotrypsin)) |
| --- | --- | --- | --- | --- | --- | --- |
| N=C(N)c1ccc(OCCCCCOc2ccc(C(=N)N)cc2)cc1 [Pentamidine, pentamidine] | 5.1 µM | 3.12 ± 0.6 µM | 1.06 ± 0.01 µM | – | – | – |
| N=C(N)c1ccc(/N=N/Nc2ccc(C(=N)N)cc2)cc1 [Diminazene] | 3.66 µM | 3.44 ± 0.41 µM | 2.29 ± 0.21 µM | low micromolar range | competitive inhibitor | – |
| N=C(N)c1ccccc1 [Benzamidine] | – | – | – | – | – | 22 µM |
| N=C(N)c1ccc(/C=C/c2ccc(C(=N)N)cc2O)cc1 [Hydroxystilbamidine, hydroxystilbamidine] | 10.6 µM | 3.35 ± 0.35 µM | 1.7 ± 0.05 µM | low micromolar range | – | – |
